Converted amounts (≈) assume the structure as drawn. Like-named read-outs stand apart in the source and are kept apart here.
How the values were obtained:
A. baumannii A489 = assay: MIC determination for Acinetobacter strains (Example 3); format: cell-based; details: LEV R, CIP R, MRP R, IMP R, AMK R, TET R
B. thailandensis = assay: microbe, parasite or virus in culture; format: cell-based, Burkholderia thailandensis; details: Burkholderia thailandensis, read-out: MIC90 B. thailandensis
S. aureus 25923 = assay: MIC, standard panel of Gram-positive and Gram-negative bacteria (CLSI); format: cell-based, Staphylococcus aureus; details: Staphylococcus aureus, 25923; CAMHB; read-out: MIC S. aureus 25923
A. baumannii A390 [1] = assay: MIC determination for Acinetobacter strains (Example 3); format: cell-based; details: LEV R, CIP R, MRP R, IPM I, AMK R, TET I
P. aeruginosa 27853 = assay: MIC, standard panel of Gram-positive and Gram-negative bacteria (CLSI); format: cell-based, Pseudomonas aeruginosa; details: Pseudomonas aeruginosa, 27853; CAMHB; read-out: MIC P. aeruginosa 27853
A. baumannii A473 [2] = assay: MIC determination for Acinetobacter strains (Example 3); format: cell-based; details: LEV R, CIP R, MRP R, IMP R, AMK R, TET R
S. pneumoniae 49619 = assay: MIC, panel of quinolone-resistant strains (CLSI); format: cell-based; details: Streptococcus pneumoniae, LEV S
A. baumannii A390 [3] = assay: MIC without and with sub-inhibitory polymyxin B (Example 4); format: cell-based, Acinetobacter baumannii; details: Acinetobacter baumannii, A390, A. baumannii A390; without polymyxin B; 1st experiment; read-out: MIC without PB
A. baumannii A472 = assay: Preliminary MBC without and with sub-inhibitory polymyxin B (Example 4); format: cell-based, Acinetobacter baumannii; details: Acinetobacter baumannii, A472, A. baumannii A472, without polymyxin B, read-out: MBC without PB
A. baumannii A387 [4] = assay: as above; format: cell-based, Acinetobacter baumannii; details: Acinetobacter baumannii, A387, A. baumannii A387, without polymyxin B, 2nd experiment, read-out: MBC without PB
E. coli 25922 = assay: MIC, standard panel of Gram-positive and Gram-negative bacteria (CLSI); format: cell-based, Escherichia coli; details: Escherichia coli, 25922; CAMHB; read-out: MIC E. coli 25922
S. aureus SMITH = assay: MIC, panel of quinolone-resistant strains (CLSI); format: cell-based; details: Staphylococcus aureus; CIP R
A. baumannii A387 [5] = assay: MIC without and with sub-inhibitory polymyxin B (Example 4); format: cell-based, Acinetobacter baumannii; details: Acinetobacter baumannii, A387, A. baumannii A387, without polymyxin B, read-out: MIC without PB
[6] = tested on: 11 strains of A. baumannii and one strain of Acinetobacter sp.; assay: Preliminary MBC without and with sub-inhibitory polymyxin B, whole panel (Example 4; also strains not listed separately); format: cell-based; details: Acinetobacter baumannii, read-out: MBC without PB
A. baumannii J2 = assay: MIC determination for Acinetobacter strains (Example 3); format: cell-based; details: LEV R, CIP R
[7] = tested on: Acinetobacter spp. H064200250; assay: as above; format: cell-based, Acinetobacter sp.; details: LEV R, CIP R, MRP R, IMP I
A. baumannii A387 [8] = assay: as above; format: cell-based; details: LEV I, CIP R, IPM R, AMK R, TET R
A. baumannii A473 [9] = assay: Preliminary MBC without and with sub-inhibitory polymyxin B (Example 4); format: cell-based, Acinetobacter baumannii; details: Acinetobacter baumannii, A473, A. baumannii A473, without polymyxin B, read-out: MBC without PB
S. epidermis 12228 = assay: MIC, standard panel of Gram-positive and Gram-negative bacteria (CLSI); format: cell-based, Staphylococcus epidermis; details: Staphylococcus, 12228; CAMHB; read-out: MIC S. epidermis 12228
E. coli IMP = assay: microbe, parasite or virus in culture; details: Escherichia coli, read-out: MIC E. coli IMP
A. Baumanii OXA-51 = assay: MIC, panel of quinolone-resistant strains (CLSI); format: cell-based; details: Acinetobacter baumannii; CIP R, ESBL

## Cc1c(-c2cc(F)c(N)cc2F)ccn2c(=O)c(C(=O)O)cc(C3CC3)c12 [Compound 2, 8-(3,6-difluoro-4-amino-phenyl)-1-cyclopropyl-9-methyl-4-oxo-quinolizine-3-carboxylic acid]
A. baumannii A489
  MIC: 2 mg/L (≈ 5.4 µM)
B. thailandensis
  MIC90: < 0.048 mg/L
S. aureus 25923
  MIC: < 0.008 mg/L
A. baumannii A390 [1]
  MIC: 8 mg/L (≈ 21.6 µM)
P. aeruginosa 27853
  MIC: 2 mg/L (≈ 5.4 µM)
A. baumannii A473 [2]
  MIC: 8 mg/L (≈ 21.6 µM)
S. pneumoniae 49619
  MIC: < 0.03 mg/L
A. baumannii A390 [3]
  MIC: 8 mg/L (≈ 21.6 µM)
A. baumannii A472; 1st experiment
  MBC: 4 mg/L (≈ 10.8 µM)
A. baumannii A472; 2nd experiment
  MBC: 8 mg/L (≈ 21.6 µM)
A. baumannii A387 [4]
  MBC: 1 mg/L (≈ 2.7 µM)
E. coli 25922
  MIC: < 0.03 mg/L
S. aureus SMITH
  MIC: < 0.03 mg/L
A. baumannii A387 [5]; 1st experiment
  MIC: 0.5 mg/L (≈ 1.35 µM)
A. baumannii A387 [5]; 2nd experiment, visual reading
  MIC: 1 mg/L (≈ 2.7 µM)
[6]; A. baumannii A14, without polymyxin B, 1st experiment
  MBC: 16 mg/L (≈ 43.2 µM)
[6]; A. baumannii A14, without polymyxin B, 2nd experiment
  MBC: 16 mg/L (≈ 43.2 µM)
[6]; NCTC13301, A. baumannii NCTC 13301, without polymyxin B, 1st experiment
  MBC: 8 mg/L (≈ 21.6 µM)
[6]; NCTC13301, A. baumannii NCTC 13301, without polymyxin B, 2nd experiment
  MBC: 32 mg/L (≈ 86.4 µM)
A. baumannii J2
  MIC: 4 mg/L (≈ 10.8 µM)
[7]
  MIC: 4 mg/L (≈ 10.8 µM)
A. baumannii A387 [8]
  MIC: 0.5 mg/L (≈ 1.35 µM)
A. baumannii A473 [9]; 1st experiment
  MBC: 2 mg/L (≈ 5.4 µM)
A. baumannii A473 [9]; 2nd experiment
  MBC: 4 mg/L (≈ 10.8 µM)
S. epidermis 12228
  MIC: < 0.008 mg/L
E. coli IMP
  MIC: < 0.008 mg/L
A. Baumanii OXA-51
  MIC: 4 mg/L (≈ 10.8 µM)

Reference: patent US10155021B2, “Antimicrobial 4-oxoquinolizines” (Emergent Product Development Gaithersburg Inc., priority 2011, dated 2018)
